Among the test systems are DMS-114; DMS-273; HCT-116; HL-60; KM-20L2; KM12; OVCAR-4; RPMI-8226; RXF 393; SF-268; SNB-78; UACC-62; BT-549; DU-145; Hs-578T; MDA-MB-435; MDA-N; PC-3; SR; T47D.
Common to all, as to assay: inhibition of tumour cell growth, NCI panel, 48 h

Each structure is given as a SMILES string.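 Assay format: 96-well plates, 48-hour exposure. Here, GI50 denotes the concentration required for 50% inhibition of growth.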 Active and inactive are the calls of the source. Rule as the data show it: active = GI50 up to about 1.1 µM and inactive = higher. Where only a bound is given, the exact number is not on record here.

As to `Cc1nc(O)nc(O)c1/C=C/C(=O)O`, the GI50 in the test with DMS-114, in the test with DMS-273, in the test on HCT-116, in the test with HL-60, with KM-20L2 and in the test on KM12 was > 1000 µM (inactive) in each case. Besides, the GI50 in the test on OVCAR-4, in the test on RPMI-8226, with RXF 393, in the test on SF-268, in the test with SNB-78 and in the test with UACC-62 was > 1000 µM (inactive) each time.
`CC(=O)c1c(-c2ccco2)c(C#N)c(=S)n(C2OC(CO)C(O)C(O)C2O)c1-c1ccccc1` (stereo not drawn): the GI50 was > 100 µM (inactive) in the test with BT-549; 87.3 µM (inactive) in the test with DU-145; 66.2 µM (inactive) in the test with HCT-116; 41.2 µM (inactive) in the test on HL-60; 61.8 µM (inactive) with Hs-578T; 64.3 µM (inactive) in the test with KM12. Besides, the GI50 was 29.2 µM (inactive) in the test on MDA-MB-435; > 10 µM (inactive) with MDA-N; 73.3 µM (inactive) in the test with OVCAR-4; 64.4 µM (inactive) in the test on PC-3; > 100 µM (inactive) with RPMI-8226; 37 µM (inactive) in the test on RXF 393. Moreover, the GI50 in the test on SF-268 is 61.2 µM (inactive); with SR it was 68.7 µM (inactive); with T47D it was 29.4 µM (inactive); in the test on UACC-62 it was 32 µM (inactive).
With `CC(=O)OC1COC(N2c3ccccc3[C@@H]3CCc4c([nH]c5ccccc45)[C@@H]32)C(OC(C)=O)C1OC(C)=O.CC(=O)OC1COC(N2c3ccccc3[C@H]3CCc4c([nH]c5ccccc45)[C@H]32)C(OC(C)=O)C1OC(C)=O` (stereo partly drawn), the GI50 in the test on BT-549 was 56.9 µM (inactive); in the test on DU-145 it was > 100 µM (inactive); with HCT-116, 14.3 µM (inactive); in the test on Hs-578T it was 21.4 µM (inactive); in the test with KM12, 12.1 µM (inactive); with MDA-MB-435 it was 51.8 µM (inactive). In addition, the GI50 with MDA-N was 65.3 µM (inactive); with OVCAR-4, 71.8 µM (inactive); with PC-3, 16.2 µM (inactive); in the test with RPMI-8226, 12 µM (inactive); in the test on SF-268 it was 30.9 µM (inactive); with SR, 11.6 µM (inactive). In the test on UACC-62, the GI50 is 60.5 µM (inactive).
Turning to `Cc1cc(NC(=S)Nc2ccccc2)c(NC(=S)Nc2ccccc2)cc1C`, the GI50 was 17 µM (inactive) in the test on DMS-273; 14.3 µM (inactive) with HCT-116; 1.9 µM (inactive) in the test with HL-60; 36.7 µM (inactive) with KM-20L2; 5.11 µM (inactive) with KM12; 32.3 µM (inactive) with OVCAR-4. The GI50 with RPMI-8226 is 8.47 µM (inactive); in the test on RXF 393, > 46.8 µM (inactive); in the test with SF-268 it was 36.8 µM (inactive); in the test with UACC-62, 18.2 µM (inactive).
As for `CCC1C(C#N)=C(O)NC(O)=C1C#N`, the GI50 with DMS-114, with DMS-273, in the test with HCT-116, in the test on KM-20L2, in the test on KM12 and with OVCAR-4 was > 100 µM (inactive) each time. The GI50 with RPMI-8226, with RXF 393, in the test with SF-268, in the test with SNB-78 and with UACC-62 was > 100 µM (inactive) throughout.
As to `CCN1c2ccccc2-n2c(C)nnc2-c2c(-c3ccccc3)n[nH]c21`, the GI50 in the test with DU-145 was 36.1 µM (inactive); in the test with HCT-116 it was 26.5 µM (inactive); with HL-60, 12.4 µM (inactive); with Hs-578T, 46.1 µM (inactive); in the test on KM12, 26.5 µM (inactive); in the test with MDA-MB-435, 16.2 µM (inactive). The GI50 is 28 µM (inactive) in the test on MDA-N; 22 µM (inactive) in the test on OVCAR-4; 30.4 µM (inactive) in the test on PC-3; 14.8 µM (inactive) in the test on RPMI-8226; 44.5 µM (inactive) in the test with RXF 393; 35.8 µM (inactive) in the test on SF-268. Further, the GI50 in the test with SR was 13 µM (inactive); in the test with T47D, 14.7 µM (inactive); in the test with UACC-62 it was 22.4 µM (inactive).
As for `COc1ccc(-c2cc(O)c3c(C)ccnc3n2)cc1`, the GI50 with BT-549 is 33.7 µM (inactive); in the test with DU-145, 28.8 µM (inactive); with Hs-578T, 23.8 µM (inactive); with KM12 it was 3.18 µM (inactive); in the test on OVCAR-4 it was 24.8 µM (inactive); in the test with RPMI-8226, 9.31 µM (inactive). Moreover, the GI50 in the test with RXF 393 was 19.9 µM (inactive); with SF-268, 15.1 µM (inactive); in the test on T47D, 7.43 µM (inactive); in the test on UACC-62, 10.6 µM (inactive).
As to `CC1C(=O)C(C)C(c2ccco2)N(N=O)C1c1ccco1` (stereo not drawn), the GI50 in the test on DMS-273, with HCT-116, in the test on HL-60, in the test with KM-20L2, in the test with KM12 and with OVCAR-4 was > 100 µM (inactive) throughout. For the same compound, the GI50 in the test with RPMI-8226, with RXF 393, with SF-268, in the test on SNB-78 and in the test on UACC-62 was > 100 µM (inactive) in each case.
On to `O=C(N/C(=C\c1ccccc1[N+](=O)[O-])c1nc2ccccc2[nH]1)c1ccccc1`, for which the GI50 with DMS-273 was > 100 µM (inactive); in the test with KM-20L2, > 100 µM (inactive); in the test with KM12 it was > 100 µM (inactive); in the test with OVCAR-4 it was > 100 µM (inactive); in the test on RXF 393, 56.1 µM (inactive); with SNB-78, 92.7 µM (inactive). The GI50 with SR is 37.6 µM (inactive); with UACC-62 it was 62.4 µM (inactive).
As for `CC1=Nc2c(N)nc(N)nc2N(C)C1`, the GI50 in the test with BT-549, in the test on DU-145, with HL-60, in the test on Hs-578T, in the test on KM12 and with MDA-MB-435 was > 100 µM (inactive) throughout. In addition, the GI50 in the test with MDA-N, with PC-3, in the test on RPMI-8226, in the test on RXF 393, in the test on SF-268 and in the test on T47D was > 100 µM (inactive) each time. Besides, in the test on UACC-62, the GI50 is > 100 µM (inactive).
For `Cc1nc(Cl)c(C)c(Cl)n1`, the GI50 with BT-549 was > 100 µM (inactive); in the test with DU-145, > 100 µM (inactive); in the test with HCT-116, > 100 µM (inactive); with HL-60, 8.59 µM (inactive); in the test with Hs-578T, > 75.2 µM (inactive); in the test on KM12 it was > 59.6 µM (inactive). Moreover, the GI50 in the test on MDA-MB-435 was 33.3 µM (inactive); in the test with MDA-N, 18.8 µM (inactive); in the test on OVCAR-4, 52.7 µM (inactive); in the test on PC-3, > 93.3 µM (inactive); in the test with RPMI-8226, > 100 µM (inactive); in the test on RXF 393, > 100 µM (inactive). Besides, the GI50 was > 100 µM (inactive) in the test on SF-268, 0.254 µM (active) in the test with SR, > 100 µM (inactive) in the test with T47D and > 80.4 µM (inactive) in the test with UACC-62.
Turning to `CCOC(=O)CCN1C(=O)c2c(NC(=O)C(=O)O)cccc2S1(=O)=O`, the GI50 in the test on BT-549, in the test on DU-145, in the test on HCT-116, in the test with HL-60, in the test on Hs-578T and in the test with KM12 was > 100 µM (inactive) throughout. Moreover, the GI50 in the test on MDA-MB-435, in the test on MDA-N, in the test on OVCAR-4, in the test with PC-3, in the test on RPMI-8226 and in the test with RXF 393 was > 100 µM (inactive) each time. For the same compound, the GI50 in the test with SF-268, with SR, with T47D and with UACC-62 was > 100 µM (inactive) in each case.
Turning to `CCOC(=O)NC(Nc1ncccn1)(C(F)(F)F)C(F)(F)F`, the GI50 in the test with BT-549, with DU-145, in the test with HCT-116, in the test on HL-60, in the test with Hs-578T and in the test with KM12 was > 100 µM (inactive) throughout. For the same compound, the GI50 in the test with MDA-MB-435, in the test with MDA-N, with RPMI-8226, in the test with RXF 393, in the test with SF-268 and with SR was > 100 µM (inactive) throughout. Besides, the GI50 in the test with T47D and in the test on UACC-62 was > 100 µM (inactive) each time.
On to `CCOc1ncn(-c2ccc(NC(=S)Nc3ncccn3)cc2)n1`, for which the GI50 is 20.8 µM (inactive) in the test with BT-549; 66.8 µM (inactive) with DU-145; 32.5 µM (inactive) in the test with HCT-116; 16.2 µM (inactive) in the test on HL-60; > 100 µM (inactive) in the test with KM12; 56.1 µM (inactive) with MDA-MB-435. Besides, the GI50 with OVCAR-4 was 21.8 µM (inactive); in the test on PC-3, 46.5 µM (inactive); with RPMI-8226 it was 10.6 µM (inactive); with SF-268 it was > 100 µM (inactive); in the test on SR, 24 µM (inactive); with T47D, 21.7 µM (inactive). Moreover, in the test with UACC-62, the GI50 was 28.8 µM (inactive).
As for `CCP(=O)(CC)C(Cl)(Cl)C(O)C(Cl)(Cl)Cl` (stereo not drawn), the GI50 in the test on DU-145, with HCT-116, in the test with HL-60, in the test with Hs-578T, in the test on MDA-N and with OVCAR-4 was > 100 µM (inactive) throughout. Further, the GI50 with PC-3, in the test on RPMI-8226, with SR and with T47D was > 100 µM (inactive) each time.
For the compound `O=C1CCC(=O)C1=NNc1ccccc1`, the GI50 with DMS-114, with DMS-273, in the test on HCT-116, with HL-60, with KM12 and in the test with OVCAR-4 was > 100 µM (inactive) in each case. Besides, the GI50 is > 100 µM (inactive) in the test on RXF 393, > 100 µM (inactive) in the test on SF-268, > 100 µM (inactive) with SNB-78 and 8.38 µM (inactive) in the test with UACC-62.

These data come from ChEMBL document CHEMBL1201862, “PubChem BioAssay data set” (2004).
